Laboratory results published in US20230014226A1, “NEW COMPOUNDS AND METHODS” (BenevolentAI Bio Limited, priority 2019, published 2023).
Read-outs that look alike come from different tables or passages of the source.

Columns and labels:
[1] = biological target: T1, recombinant human P450 enzyme 1A1 (Homo sapiens, UniProt P04798); assay: Formation of reactive metabolites (glutathione adduct) by CYP1A1 with human liver cytosol; assay type: in vitro ADME; conditions: 50 μM, human liver cytosol + recombinant CYP1A1, NADPH and GSH, 60 min
T1 construct: host or cells: Bacterial membranes (bactosomes), inferred from the named control preparation
T1 sequence (P04798 1-512): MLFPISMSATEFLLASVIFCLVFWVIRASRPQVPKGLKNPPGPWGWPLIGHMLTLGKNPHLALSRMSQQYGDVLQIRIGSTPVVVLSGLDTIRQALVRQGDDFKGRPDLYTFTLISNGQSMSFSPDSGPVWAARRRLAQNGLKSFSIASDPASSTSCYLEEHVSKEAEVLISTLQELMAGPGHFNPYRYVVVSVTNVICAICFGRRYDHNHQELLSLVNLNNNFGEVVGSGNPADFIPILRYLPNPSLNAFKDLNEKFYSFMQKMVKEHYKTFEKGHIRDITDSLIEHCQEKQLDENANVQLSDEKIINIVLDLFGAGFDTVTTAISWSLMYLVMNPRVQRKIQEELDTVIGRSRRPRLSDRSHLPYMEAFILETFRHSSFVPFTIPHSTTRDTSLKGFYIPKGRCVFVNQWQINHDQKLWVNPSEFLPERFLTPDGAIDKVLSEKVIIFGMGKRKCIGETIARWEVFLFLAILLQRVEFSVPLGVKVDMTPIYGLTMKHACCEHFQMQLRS
Procedure: Investigations into the potential for test compound to form a reactive metabolite were performed using an adapted method detailed by De Lin et al. Briefly, test compound was pre-incubated (n=2; 50 μM substrate concentration) at 37° C. for 5 min with mixed-gender human liver cytosol (1 mg/mL total protein concentration) in 100 mM phosphate buffer (pH 7.4) with 5 mM MgCl2 in the presence of recombinant human P450 enzyme 1A1 (100 nM), in the presence and absence of 5 mM glutathione. At the end of the pre-incubation period, 2 mM NADPH was added to each sample and the mixture incubated at 37° C. for 60 min. Immediately following the addition of NADPH and after the 60 min incubation period, aliquots of each sample were mixed with MeCN (containing internal standard) to terminate the reaction and precipitate the proteins.
Samples were mixed, centrifuged and following appropriate dilution, supernatants were analysed by LC-MS utilising a high-resolution mass spectrometer to perform metabolite identification and characterisation analysis.

[2] = system: SC-hCMs (stem cell cardiomyocytes); assay: Cardiomyocyte assay (CRL), iPSC cardiomyocytes; assay type: cell-based, human; conditions: for effect on sodium spike amplitude vs. control (given as reduction for nilotinib and Example 39): 10 μM after 48 hours; for ΔΔ Na Spike Amp at 10 μM, 48 h (%): corrected by time matched controls
Procedure: All measurements were performed at physiological temperature in a tissue culture incubator (37° C.; 5% CO2). Test article, positive controls and vehicle were added in a sterile tissue culture hood.
At least 10 h before compound addition SC-hCMs were exposed to the fresh culture medium. Before compound addition a one-minute recording of field potentials and impedance signals (baseline) was obtained. Test articles, vehicle and positive controls were added as a 2× concentration. One-minute recordings were obtained 0.5, 1, 2, 24 and 48 h after test article addition.
At the time of drug application, culture medium was added to an independent 96 well plate that was incubated in a tissue culture incubator for 48 h. This culture medium was used as the blank of the cTnI release assay.
After the 48 h exposure recording, 150 μL of each well was centrifuged to remove debris. The supernatant was collected and frozen for later cTnI content analysis using an ELISA plate according the manufacturer's instructions (Abcam, cat #ab200016).
Data was stored on the Charles River Laboratories computer network for off-line analysis. Data acquisition was performed using RTCA Cardio Software.
Data analysis was performed using RTCA Cardio Software, Microsoft Excel and Matlab scripts. Data were reported as mean±SEM.
The following field potential parameters were quantitated: Sodium Spike amplitude, Sodium Spike Rate, field potential duration (FPD), Bazett corrected field potential duration (FPDcB), and dysrhythmic events if present.
The following impedance parameters were quantitated: Cell Index, peak amplitude, relaxation from peak to 50% amplitude (Rel50) and twitch duration.
The sodium spike is the voltage signal produced by the propagation of the depolarizing wave (positive peak) and the local activation of sodium channels (negative peak). The sodium spike amplitude is the voltage difference (in […]) between the positive and negative peaks of the sodium spike. The Sodium Spike Rate is a measure of the rate of sodium spike generation (spikes/min) produced by the spontaneous beating of stem cell cardiomyocytes.
Abnormal rhythm activity was characterized by the presence of the following proarrhythmic markers:
Triggered activity: Triggered activity (TA) is activity characterized by the presence of voltage oscillations during the repolarization period (Early After Depolarizations, EADs) or after the repolarization is completed (Delayed After Depolarizations, DADs). They are produced by different mechanisms. EADs are due to reactivation of sodium and calcium currents due to prolongation of the action potential. DADs are due to transient releases of calcium from intracellular calcium stores. Both EADs and DADs can trigger action potentials (ectopic beats, EB).
Impedance instability: Impedance instability (II) consist of small oscillations of the impedance signal during the slower relaxation phase of the impedance twitch sometimes associated with small oscillations of the field potential (FPO). […] II informs about the possibility of drug-induced delayed repolarization setting the background where more robust proarrhythmic markers like EADs and DADs occur.
The SEM of the difference was calculated according to the following equation ΔΔSEM=(SEMtreatment2+SEMcontrol2)0.5.
The statistical analysis includes 1) a Student paired t-test to evaluate the changes respect to baseline and, 2) a multi-comparison analysis (Dunnett's test) of A % changes respect to time matched controls. An alpha probability of 0.05 was considered significant.

HUVEC = HUVEC Cell Viability (CV) assay; assay type: cell-based, human; conditions: for IC50: Homo sapiens, alamarBlue
Procedure: Cells are seeded at 10,000 cells/well in 96-well plates in HUVEC specific cell culture media. Cells are plated and cultured overnight (16-24 h) at 37° C. After the overnight culture, cells are washed and fed with the Assay Medium. Test compounds are applied and incubated with the cells for the designated time period, after which the cell viability is measured by alamarBlue method. […] The final DMSO concentration is 1%.
Fluorescence readings are recorded after the test compound and alamarBlue incubation. The excitation and emission wavelengths are 530 nm and 590 nm, respectively.
The percent of control is calculated by comparing the readings in the presence of the test compound to the vehicle control. Subsequently, the percent inhibition is calculated by subtracting the percent control activity from 100. IC50 values (concentration causing a half-maximal inhibition of the control value) are determined by non-linear regression analysis of the concentration-response curves using the Hill equation.
The reference compound used for this assay is Staurosporine.

[3] = system: HUVEC (human umbilical venous endothelial cells); conditions: HUVEC tube formation reference; read-out: expected GI50 of reference compound; cited from earlier work
[4] = system: HUVEC (human umbilical venous endothelial cells); assay: HUVEC Tube Formation assay; assay type: cell-based; conditions: 18 h incubation, read-out: Tube formation GI50
Procedure: HUVEC (human umbilical venous endothelial cells, 1.5×10^4/well, ATCC CRL-1730) are placed in an earlier prepared 96-well plate. Test substance and/or vehicle is then added to each well in a final concentration of 0.4% DMSO in growth medium under an atmosphere of 5% CO2 at 37° C. After an 18 h incubation period, morphology of the endothelial cell tubes, which resemble a capillary-like network, are evaluated by a confocal high-content imaging system. Disruption (anti-angiogenesis) of total tube length is measured from each photograph and determined relative to the vehicle control group. […] Compounds are screened at 30, 3, 0.3, 0.03 and 0.003 μM (or μg/mL) in triplicate.

hERG ion channel = hERG ion channel (Homo sapiens, UniProt Q12809); assay: hERG QPatch automated patch clamp; assay type: cell-based; conditions: CHO cells stably expressing hERG, QPatch 48, tail current
Sequence of hERG ion channel (Q12809 whole entry): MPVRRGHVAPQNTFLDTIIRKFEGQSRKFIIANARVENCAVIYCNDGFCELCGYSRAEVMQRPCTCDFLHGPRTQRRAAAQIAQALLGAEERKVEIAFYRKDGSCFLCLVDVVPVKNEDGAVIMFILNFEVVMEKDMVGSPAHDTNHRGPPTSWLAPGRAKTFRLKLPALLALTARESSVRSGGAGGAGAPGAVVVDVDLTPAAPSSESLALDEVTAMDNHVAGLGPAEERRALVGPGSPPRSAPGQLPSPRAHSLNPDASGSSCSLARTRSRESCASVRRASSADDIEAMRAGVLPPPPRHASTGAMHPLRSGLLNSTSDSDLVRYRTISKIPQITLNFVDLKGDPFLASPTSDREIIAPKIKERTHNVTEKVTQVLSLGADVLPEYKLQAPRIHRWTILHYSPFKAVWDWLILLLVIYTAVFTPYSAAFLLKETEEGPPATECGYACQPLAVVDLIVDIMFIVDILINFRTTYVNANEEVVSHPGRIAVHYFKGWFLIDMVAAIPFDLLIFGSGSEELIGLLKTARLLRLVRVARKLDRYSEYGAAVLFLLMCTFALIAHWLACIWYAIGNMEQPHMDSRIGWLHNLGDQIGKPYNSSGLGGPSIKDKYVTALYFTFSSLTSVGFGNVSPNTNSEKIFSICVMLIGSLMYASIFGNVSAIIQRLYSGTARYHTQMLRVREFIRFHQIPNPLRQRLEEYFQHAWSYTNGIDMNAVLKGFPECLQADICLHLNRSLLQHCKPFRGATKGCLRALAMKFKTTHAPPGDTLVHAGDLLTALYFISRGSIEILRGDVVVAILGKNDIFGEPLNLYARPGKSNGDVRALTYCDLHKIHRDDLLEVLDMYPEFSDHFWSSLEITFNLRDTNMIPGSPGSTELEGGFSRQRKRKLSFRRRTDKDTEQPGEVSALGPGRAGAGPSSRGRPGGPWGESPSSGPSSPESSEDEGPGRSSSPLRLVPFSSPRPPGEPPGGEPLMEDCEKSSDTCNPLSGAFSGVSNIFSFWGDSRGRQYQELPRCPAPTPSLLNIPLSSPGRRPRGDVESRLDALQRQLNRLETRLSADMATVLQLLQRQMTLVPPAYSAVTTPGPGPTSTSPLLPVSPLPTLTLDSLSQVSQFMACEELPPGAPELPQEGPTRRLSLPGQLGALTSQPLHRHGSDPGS
Procedure: hERG IC50 data was supplied by Metrion using their standard assay protocol briefly detailed below.
hERG ion channel screening was assayed in CHO cells stably expressing the human ether-á-go-go related gene, using the QPatch 48 automated, chip-based planar patch clamp device. A Gigaohm seal between the cell membrane and treated silicon surface was obtained and specific external and internal buffered solutions applied to cells prior to recording. Following baseline vehicle treatment, compounds were applied in increasing concentrations (8 pt CRC), effects on hERG tail current amplitudes were measured in two-minute recordings.

Row | effect on sodium spike amplitude vs. control (given as reduction for nilotinib and Example 39) [2] | ΔΔ Na Spike Amp at 10 μM, 48 h (%) [2] | Compound | formation of direct glutathione adduct [1] | formation of direct glutathione adduct ([1]; listed as ponatinib) | cTnI release / secretion ([2]; 10 μM (48 h), relative to vehicle) | effect on cell viability compared to the compounds of the invention (HUVEC) | GI50 [3] | GI50 [4] | Proarrhythmic Markers at 10 μM, 48 h [2] | IC50 (hERG ion channel) | IC50 (HUVEC)
1 |  |  | Cc1ccc(C(=O)Nc2ccc(CN3CCN(C)CC3)c(C(F)(F)F)c2)cc1C#Cc1cnc2cccnn12 [Ponatinib, reference compound] | forms a glutathione adduct | forms a significant direct glutathione adduct | increased troponin (cTnI) secretion | ~10 fold |  |  |  |  | 
2 |  |  | Cc1ccc(C(=O)Nc2ccc(S(=O)(=O)O)c3cc(S(=O)(=O)O)cc(S(=O)(=O)O)c23)cc1NC(=O)c1cccc(NC(=O)Nc2cccc(C(=O)Nc3cc(C(=O)Nc4ccc(S(=O)(=O)O)c5cc(S(=O)(=O)O)cc(S(=O)(=O)O)c45)ccc3C)c2)c1 [Suramin] |  |  |  |  | 15 µM |  |  |  | 
3 | 43% | −43.3% | Cc1ccc(C(=O)Nc2cn3c(n2)COCC3(C)C)cc1C#Cc1cccnc1 [Example 39, N-(5,5-dimethyl-6,8-dihydroimidazo[2,1-c][1,4]oxazin-2-yl)-4-methyl-3-[2-(3-pyridyl)ethynyl]benzamide] |  |  |  |  |  | > 30 µM | Not Observed | > 10 µM | 21 µM
4 | 2.2% | 2.20% | Cc1ccc(C(=O)Nc2cc3n(n2)CCCC3(F)F)cc1C#Cc1cccnc1 [Example 97, N-(4,4-difluoro-6,7-dihydro-5H-pyrazolo[1,5-a]pyridin-2-yl)-4-methyl-3-[2-(3-pyridyl)ethynyl]benzamide] |  |  |  |  |  | > 10 µM | Not Observed | > 10 µM | 3.6 µM
